Measured values from US11318157B2, “6-6 bicyclic aromatic ring substituted nucleoside analogues for use as PRMT5 inhibitors” (Janssen Pharmaceutica NV, priority 2015, dated 2022).
Where two headings read alike, the source gives them in different places.

What was measured:
[1] = target: T1, PRMT5-MEP50 enzyme (Homo sapiens, UniProt O14744); assay: In vitro assay 1a: high throughput mass spectrometer assay of SAH formation, 10 nM enzyme, 60 min; type: biochemical; conditions: averaged values, PRMT5-MEP50, 10 nM enzyme, read-out: pIC50 Assay 1a (converted)
T1 construct: One virus expresses full length human PRMT5 with Flag-tag at N-terminus; Flag (N); purchased Charles River (Argenta); host or cells: insect cells (Sf9), baculovirus co-infection
T1 sequence (O14744 whole entry): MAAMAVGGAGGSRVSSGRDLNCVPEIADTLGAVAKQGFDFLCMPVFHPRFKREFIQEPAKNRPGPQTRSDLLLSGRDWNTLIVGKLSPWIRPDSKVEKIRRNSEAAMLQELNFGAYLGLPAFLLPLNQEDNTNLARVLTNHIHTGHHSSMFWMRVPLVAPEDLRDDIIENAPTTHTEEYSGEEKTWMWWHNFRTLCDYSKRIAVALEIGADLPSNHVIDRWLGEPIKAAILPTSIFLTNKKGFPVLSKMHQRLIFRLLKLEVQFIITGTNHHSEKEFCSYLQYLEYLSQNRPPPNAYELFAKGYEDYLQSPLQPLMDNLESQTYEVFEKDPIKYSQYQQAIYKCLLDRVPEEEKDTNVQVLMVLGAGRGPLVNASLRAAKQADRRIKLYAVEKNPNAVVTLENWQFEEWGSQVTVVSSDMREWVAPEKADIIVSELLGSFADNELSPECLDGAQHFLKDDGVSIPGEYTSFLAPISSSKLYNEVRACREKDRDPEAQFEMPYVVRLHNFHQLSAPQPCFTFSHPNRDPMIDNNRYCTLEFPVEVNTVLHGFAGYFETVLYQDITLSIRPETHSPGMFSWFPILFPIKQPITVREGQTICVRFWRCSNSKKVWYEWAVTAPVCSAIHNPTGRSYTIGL
T1 sequence (Q9BQA1 whole entry partner): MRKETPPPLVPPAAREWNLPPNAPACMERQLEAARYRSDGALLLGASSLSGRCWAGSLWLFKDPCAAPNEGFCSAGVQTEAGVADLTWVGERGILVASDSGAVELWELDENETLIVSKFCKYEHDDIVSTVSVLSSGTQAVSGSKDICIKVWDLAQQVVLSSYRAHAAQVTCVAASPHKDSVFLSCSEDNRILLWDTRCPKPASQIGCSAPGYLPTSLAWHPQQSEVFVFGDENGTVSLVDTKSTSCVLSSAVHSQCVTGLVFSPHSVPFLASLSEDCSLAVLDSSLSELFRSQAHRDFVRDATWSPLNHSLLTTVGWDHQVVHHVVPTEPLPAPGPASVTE
Method in brief: (§1)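 Flag-PRMT5/His-MEP50 complex from Sf9 cells, with 1 μM SAM and 0.3 μM full-length histone H2A in pH 8.5 Tris buffer, at 30 °C; 10 nM enzyme for 60 min (1a) or 1.25 nM for 120 min (1b). Formic acid-quenched SAH read by RapidFire MS/MS; 11-point IC50 with Hill fit.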

[2] = target: T1, PRMT5-MEP50 enzyme; assay: In vitro assay 1b: high throughput mass spectrometer assay of SAH formation, 1.25 nM enzyme, 120 min; type: biochemical; conditions: averaged values; PRMT5-MEP50, 1.25 nM enzyme, 120 min; read-out: pIC50 Assay 1b (converted)
Method in brief: as §1

[3] = system: nuclear symmetric Arginine dimethylation in A549 cells; assay: PD assay (assay 2): inhibition of nuclear symmetric Arginine dimethylation (SYM10 immunohistochemistry), 48 h; type: cell-based; conditions: Homo sapiens
Method in brief: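 Cells seeded at 400/well overnight, then treated 48 h at 37 °C, final DMSO 0.2%. Fixed and stained with SYM10 antibody plus Alexa 488 secondary, Hoechst and CellMask, then imaged on Opera. Normalized to DMSO (high) and 10 μM reference compound (low); averaged pIC50 reported.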

[4] = target: PRMT5 (Homo sapiens, UniProt O14744); conditions: literature statement; cited from earlier work
Sequence of PRMT5 (O14744 whole entry, species assumed): as the sequence (O14744 whole entry) above
Sequence of PRMT5 (Q9BQA1 whole entry partner, species assumed): as the sequence (Q9BQA1 whole entry partner) above

[5] = system: MCL xenograft models; conditions: multiple MCL xenograft models; cited from earlier work
[6] = A549, averaged values, PD assay, A549 cells, symmetric Arginine dimethylation, read-out: pIC50 Assay 2 (converted)
[7] = A549, read-out: pIC50 Assay 2 (converted)

| IC50 [1] | IC50 [2] | IC50 [3, 6] | Compound | IC50 [3, 7] | potency as PRMT5 inhibitor [4] | anti-tumour activity [5] |
| --- | --- | --- | --- | --- | --- | --- |
| 1 nM | 15.8 nM | 31.6 nM | CC(C)(C)Nc1ccc2ccc(CC[C@H]3C[C@@H](n4ccc5c(N)ncnc54)[C@H](O)[C@@H]3O)cc2n1 [Compound 150] | – | – | – |
| 0.794 nM | 15.8 nM | 5.01 nM | Nc1ncnc2c1ccn2[C@@H]1C[C@H](CCc2ccc3ccc(NCC(F)(F)F)nc3c2)[C@@H](O)[C@H]1O [Compound 151] | – | – | – |
| 0.501 nM | 3.98 nM | < 1.17 nM | Nc1ncnc2c1ccn2[C@@H]1C[C@H](CCc2ccc3ccc(NC4CC4)nc3c2)[C@@H](O)[C@H]1O [Compound 152] | – | – | – |
| 0.501 nM | 5.01 nM | 6.31 nM | Nc1ccc2ccc(OC[C@H]3O[C@@H](n4ccc5cncnc54)[C@H](O)[C@@H]3O)cc2n1 [Compound 163] | – | – | – |
| 0.398 nM | 10 nM | < 1.17 nM | CNc1ccc2ccc(CC[C@H]3C[C@@H](n4ccc5cncnc54)[C@H](O)[C@@H]3O)cc2n1 [Compound 164] | – | – | – |
| 3.98 nM | 31.6 nM | 20 nM | O[C@@H]1[C@H](O)[C@@H](CCc2ccc3ccc(NCc4ccc(Cl)cc4)nc3c2)O[C@H]1n1ccc2cncnc21 [Compound 165] | – | – | – |
| 1 nM | 5.01 nM | 1 nM | O[C@@H]1[C@@H](CCc2ccc3ccc(NCC4CC4)nc3c2)C[C@@H](n2ccc3cncnc32)[C@@H]1O [Compound 166] | – | – | – |
| 0.794 nM | 5.01 nM | 3.16 nM | Nc1ccc2ccc(CC[C@H]3O[C@@H](n4ccc5cncnc54)[C@H](O)[C@@H]3O)cc2n1 [Compound 167] | – | – | – |
| 3.98 nM | 50.1 nM | 126 nM | O[C@@H]1[C@H](O)[C@@H](CCc2ccc3ccc(NCC4CC4)nc3c2)O[C@H]1n1ccc2cncnc21 [Compound 168] | – | – | – |
| 10 nM | 63.1 nM | 50.1 nM | CNc1ccc2ccc(CC[C@H]3O[C@@H](n4ccc5cncnc54)[C@H](O)[C@@H]3O)cc2n1 [Compound 169] | – | – | – |
| 6.31 nM | 63.1 nM | 79.4 nM | O[C@@H]1[C@H](O)[C@@H](COc2ccc3ccc(NCC4CC4)nc3c2)O[C@H]1n1ccc2cncnc21 [Compound 170] | – | – | – |
| 0.794 nM | 6.31 nM | 3.16 nM | O[C@@H]1[C@@H](CCc2ccc3ccc(NCc4ccc(Cl)cc4)nc3c2)C[C@@H](n2ccc3cncnc32)[C@@H]1O [Compound 171] | – | – | – |
| 0.501 nM | 3.98 nM | < 1.17 nM | O[C@@H]1[C@@H](CCc2ccc3ccc(NCc4ccccc4)nc3c2)C[C@@H](n2ccc3cncnc32)[C@@H]1O [Compound 172] | – | – | – |
| 2 nM | 15.8 nM | 39.8 nM | O[C@@H]1[C@H](O)[C@@H](COc2ccc3ccc(NCc4ccc(Cl)cc4)nc3c2)O[C@H]1n1ccc2cncnc21 [Compound 173] | – | – | – |
| 10 nM | 50.1 nM | 126 nM | CNc1ccc2ccc(OC[C@H]3O[C@@H](n4ccc5cncnc54)[C@H](O)[C@@H]3O)cc2n1 [Compound 174] | – | – | – |
| > 10000 nM | 3160 nM | > 10000 nM | COCc1ccc2ccc(OC[C@H]3O[C@@H](n4ccc5c(N)ncnc54)[C@H](O)[C@@H]3O)cc2n1 [Compound 175] | – | – | – |
| 0.501 nM | 3.98 nM | 3.16 nM | CNc1ccc2ccc(CC[C@H]3C[C@@H](n4ccc5c(C)ncnc54)[C@H](O)[C@@H]3O)cc2n1 [Compound 176] | – | – | – |
| 10 nM | 31.6 nM | 63.1 nM | Cc1ncnc2c1ccn2[C@@H]1O[C@H](CCc2ccc3ccc(NCc4ccc(Cl)cc4)nc3c2)[C@@H](O)[C@H]1O [Compound 177] | – | – | – |
| 3.98 nM | 7.94 nM | 50.1 nM | CNc1ccc2ccc(OC[C@H]3O[C@@H](n4ccc5c(N)ncnc54)[C@H](O)[C@@H]3O)cc2n1 [Compound 185] | – | – | – |

| IC50 [1] | IC50 [2] | IC50 [3, 6] | Compound | IC50 [3, 7] | potency as PRMT5 inhibitor [4] | anti-tumour activity [5] |
| --- | --- | --- | --- | --- | --- | --- |
| 2 nM | 15.8 nM | 79.4 nM | CNc1ncnc2c1ccn2[C@@H]1O[C@H](COc2ccc3ccc(N)nc3c2)[C@@H](O)[C@H]1O [Compound 186] | – | – | – |
| 10 nM | 79.4 nM | 25.1 nM | COc1ncnc2c1ccn2[C@@H]1O[C@H](COc2ccc3ccc(N)nc3c2)[C@@H](O)[C@H]1O [Compound 187] | – | – | – |
| 316 nM | 1000 nM | 251 nM | CNC(=O)c1cnc2cc(OC[C@H]3O[C@@H](n4ccc5c(N)ncnc54)[C@H](O)[C@@H]3O)ccc2c1 [Compound 189] | – | – | – |
| 0.501 nM | 5.01 nM | ~1.86 nM | Cc1ncnc2c1ccn2[C@@H]1C[C@H](CCc2ccc3ccc(NCC4CC4)nc3c2)[C@@H](O)[C@H]1O [Compound 190] | – | – | – |
| 200 nM | 631 nM | 1260 nM | COc1ncnc2c1ccn2[C@@H]1O[C@H](CCc2ccc3ccc(NCC4CC4)nc3c2)[C@@H](O)[C@H]1O [Compound 191] | – | – | – |
| 0.631 nM | 10 nM | 3.16 nM | Cc1ncnc2c1ccn2[C@@H]1O[C@H](CCc2ccc3ccc(N)nc3c2)[C@@H](O)[C@H]1O [Compound 192] | – | – | – |
| 1 nM | 7.94 nM | 3.16 nM | Cc1ncnc2c1ccn2[C@@H]1C[C@H](CCc2ccc3ccc(NCc4ccc(Cl)cc4)nc3c2)[C@@H](O)[C@H]1O [Compound 193] | – | – | – |
| 3.16 nM | 25.1 nM | 50.1 nM | Cc1ncnc2c1ccn2[C@@H]1O[C@H](COc2ccc3ccc(NCc4ccc(Cl)cc4)nc3c2)[C@@H](O)[C@H]1O [Compound 205] | – | – | – |
| 2510 nM | 1260 nM | > 10000 nM | Nc1ccc2ccc(OC[C@H]3O[C@@H](n4ccc5c(O)ncnc54)[C@H](O)[C@@H]3O)cc2n1 [Compound 208] | – | – | – |
| 7.94 nM | 15.8 nM | 63.1 nM | CCc1cnc2cc(OC[C@H]3O[C@@H](n4ccc5c(N)ncnc54)[C@H](O)[C@@H]3O)ccc2c1 [Compound 213] | – | – | – |
| 31.6 nM | 100 nM | 398 nM | CC(C)c1cnc2cc(OC[C@H]3O[C@@H](n4ccc5c(N)ncnc54)[C@H](O)[C@@H]3O)ccc2c1 [Compound 214] | – | – | – |
| 7.94 nM | 39.8 nM | 1260 nM | Nc1ncc2ccc(CC[C@H]3C[C@@H](n4ccc5c(Cl)ncnc54)[C@H](O)[C@@H]3O)cc2n1 [Compound 215] | – | – | – |
| 1 nM | 7.94 nM | 10 nM | Nc1ncc2ccc(CC[C@H]3C[C@@H](n4ccc5c(N)ncnc54)[C@H](O)[C@@H]3O)cc2n1 [Compound 216] | – | – | – |
| 5.01 nM | 20 nM | 39.8 nM | Cc1cnc2cc(OC[C@H]3O[C@@H](n4ccc5c(N)ncnc54)[C@H](O)[C@@H]3O)ccc2c1 [Compound 217] | – | – | – |
| 3980 nM | > 100000 nM | 7940 nM | Nc1ncnc2c1ncn2[C@@H]1O[C@H](COc2cc3ncc(Br)cc3cc2Cl)[C@@H](O)[C@H]1O [Compound 219] | – | – | – |
| 316 nM | 501 nM | 2510 nM | Nc1ncnc2c1ncn2[C@@H]1O[C@H](COc2ccc3cc(Br)cnc3c2)[C@@H](O)[C@H]1O [Compound 220] | – | – | – |
| 31.6 nM | 63.1 nM | ~174 nM | Nc1ncnc2c1ccn2[C@@H]1C[C@H](COc2ccc3cc(Cl)cnc3c2)[C@@H](O)[C@H]1O [Compound 222] | – | – | – |
| 2000 nM | 3160 nM | > 20000 nM | NC(=O)c1ccc2ccc(OC[C@H]3O[C@@H](n4ccc5c(N)ncnc54)[C@H](O)[C@@H]3O)cc2n1 [Compound 245] | – | – | – |
| – | – | – | O=C(NC[C@H](O)CN1CCc2ccccc2C1)c1cc(NC2COC2)ncn1 [EPZ015666] | – | sub-nanomolar | anti-tumour activity |

| Compound | IC50 [1] | IC50 [2] | IC50 [3, 6] | IC50 [3, 7] | potency as PRMT5 inhibitor [4] | anti-tumour activity [5] |
| --- | --- | --- | --- | --- | --- | --- |
| C=C(C)c1cnc2cc(OC[C@H]3O[C@@H](n4ccc5c(N)ncnc54)[C@H](O)[C@@H]3O)ccc2c1 [Compound 212] | 20 nM | 50.1 nM | – | 200 nM | – | – |
| Nc1ccc2ccc(OC[C@H]3O[C@@H](n4ccc5c(N)ncnc54)[C@H](O)[C@@H]3O)cc2n1 [Compound 218] | 2.51 nM | 5.01 nM | – | 5.01 nM | – | – |
